# Measurements published in patent US20100292186A1, “Pharmaceutical Composition for Treatment or Prevention of Liver Cancer” (National University Corporation Nagoya University, priority 2006, published 2010).
# How the values were obtained:
# [1] = system: human hepatocellular cancer cell lines (Hep-3B, Hep-G2, Huh-7 and the like); conditions: literature; cited from earlier work
# [2] = cited from earlier work
# [3] = system: human hepatocellular cancer cell line (Hep-3B, Hep-G2, Huh-7 and Alexander); test: MTT assay, growth inhibition of hepatocellular cancer cell lines; assay type: cell-based
# Protocol: Four species of human hepatocellular cancer cell line (Hep-3B. Hep-G2, Huh-7 and Alexander) were cultured under humidified atmosphere of 95% air and 5% carbon dioxide, in a Dulbecco Modified Eagle culture medium (DMEM: SIGMA CHEMICAL Co., St. Louis USA) supplemented with 10% fetal bovine serum (FBS), 100 U/ml penicillin G sulphate and 100 μg/ml streptomycin sulphate.
# For lecithin (other name: phosphatidylcholine (hereinafter, referred to as simply “PC”), soybean lecithin with a purity of approximately 96.5% was used, and menatetrenone and Kaytwo N (Kaytwo N: registered trade mark; manufactured by Eisai Co. Ltd.) were provided by Eisai Co. Ltd. For the study, cells (Hep-G2: 1×10^4; others: 1×10^3) in a 96-well microtiter plate were cultured one day prior to beginning the experiments. In the MTT assay method, cells in 96-well microtiter were cultured several days (2 to 4 days) in the presence of PC (1×10^−8 to 1×10^−4M) and menatetrenone (1×10^−7 to 1×10^−4 M) or Kaytwo N (registered trade mark; manufactured by Eisai Co. Ltd.) (regarding menatetrenone: […] to 1×10^−4M). […] The survival rate was analyzed by the MTT assay method using the Tetra Color One Kit. […]
# Significant differences were evaluated by the Mann-Whitney U test according to StatView 5.0 (Abacus Concepts, Berkley, Calif.). […]
# hepatocellular cancer = conditions: administration after treatment of hepatocellular cancer; cited from earlier work
structure (smiles),measurement,setting,value
"CC(C)=CCC/C(C)=C/CC/C(C)=C/CC/C(C)=C/CC1=C(C)C(=O)c2ccccc2C1=O [menatetrenone, 2-methyl-3-tetraprenyl-1,4-naphthoquinone]",growth of human hepatocellular cancer cell lines,[1],inhibitory effect
same,solubility in water,[2],almost insoluble in water
same,survival rate,"[3]; MTT assay, PC 1×10^−8 to 1×10^−4 M, menatetrenone 1×10^−7 to 1×10^−4 M, culture 2 to 4 days, FIGS. 1A-1C",survival rate decreased in the presence menatetrenone depending on the quantity added
same,multiplication of human hepatocellular cancer cell lines,[3]; each substance alone,demonstrated an inhibitory effect
same,occurrence of PVI (portal venous invasion),hepatocellular cancer,could be suppressed
same,prognosis / recurrence of hepatocellular cancer,hepatocellular cancer,prognosis could be improved by suppressing the recurrence of hepatocellular cancer
